#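 Values below derive from 48-hour exposures of cells grown in 96-well plates, with endpoints linearly interpolated between the two concentrations bracketing the appropriate inhibition level. At the GI50, growth is halved.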 Active and inactive are the calls of the source. Rule as the data show it: active = GI50 up to about 1.1 µM and inactive = higher.
# Columns and labels:
# Assay in all cases: inhibition of tumour cell growth, NCI panel, 48 h
# [1] = system: SK-MEL-5
# [2] = system: SK-OV-3
# [3] = system: SW-620
# [4] = system: UACC-62
# [5] = system: SNB-19
# [6] = system: LOX IMVI
# [7] = system: HCT-116
# [8] = system: SR
# [9] = system: NCI-H460
# [10] = system: RXF 393
# [11] = system: UACC-257
# [12] = system: NCI-H23
# [13] = system: 786-0
# [14] = system: SNB-75
# [15] = system: COLO 205
# [16] = system: TK-10
Structure (SMILES),GI50 [1],GI50 [2],GI50 [3],GI50 [4],GI50 [5],GI50 [6],GI50 [7],GI50 [8],GI50 [9],GI50 [10],GI50 [11],GI50 [12],GI50 [13],GI50 [14],GI50 [15],GI50 [16]
CC(C)C(=O)/C=C/c1ccccc1,67.3 µM (inactive),> 100 µM (inactive),72.1 µM (inactive),87.3 µM (inactive),> 100 µM (inactive),83.6 µM (inactive),67.3 µM (inactive),31.2 µM (inactive),50.6 µM (inactive),> 100 µM (inactive),94.8 µM (inactive),63.8 µM (inactive),46.5 µM (inactive),> 100 µM (inactive),> 100 µM (inactive),
CCOC(=O)/C(=C/c1ccc(C#N)cc1)N(CC)CC,> 100 µM (inactive),> 100 µM (inactive),> 100 µM (inactive),> 100 µM (inactive),,> 100 µM (inactive),> 100 µM (inactive),> 100 µM (inactive),> 100 µM (inactive),,> 100 µM (inactive),> 100 µM (inactive),> 100 µM (inactive),> 100 µM (inactive),> 100 µM (inactive),> 100 µM (inactive)
CC(=O)N1CCC(=O)/C(=C/c2ccccc2)C1,34 µM (inactive),75.2 µM (inactive),17.6 µM (inactive),24.7 µM (inactive),> 100 µM (inactive),16.1 µM (inactive),18.1 µM (inactive),24.5 µM (inactive),27.7 µM (inactive),22.8 µM (inactive),> 100 µM (inactive),32.4 µM (inactive),27.7 µM (inactive),37.1 µM (inactive),34.6 µM (inactive),97.3 µM (inactive)
O=C(/N=N/C(=O)OCc1ccccc1)OCc1ccccc1,> 100 µM (inactive),> 100 µM (inactive),> 100 µM (inactive),> 100 µM (inactive),64.9 µM (inactive),> 100 µM (inactive),> 100 µM (inactive),,> 100 µM (inactive),> 100 µM (inactive),> 100 µM (inactive),99.8 µM (inactive),> 100 µM (inactive),42.1 µM (inactive),> 100 µM (inactive),> 100 µM (inactive)
N#C/C(=C\c1ccc(O)cc1O)C(N)=O,,45.6 µM (inactive),> 100 µM (inactive),58.6 µM (inactive),87.9 µM (inactive),> 100 µM (inactive),94.2 µM (inactive),,> 100 µM (inactive),20.5 µM (inactive),51.1 µM (inactive),58.1 µM (inactive),> 100 µM (inactive),16.7 µM (inactive),12.9 µM (inactive),> 100 µM (inactive)
CC1=C(C(=O)Nc2ccccc2)C(c2ccc(Cl)c(Cl)c2)C(C(=O)Nc2ccccc2)=C(C)N1,14 µM (inactive),15.1 µM (inactive),17 µM (inactive),10.2 µM (inactive),12.9 µM (inactive),14.2 µM (inactive),10.4 µM (inactive),,13 µM (inactive),8.61 µM (inactive),12.7 µM (inactive),12.5 µM (inactive),12.8 µM (inactive),14.2 µM (inactive),15.4 µM (inactive),33.9 µM (inactive)
O=C(c1ccc(O)cc1)C1c2c3c(cc(O)c2C(c2ccc(O)cc2)C1c1cc(O)cc(O)c1)OC(c1ccc(O)cc1)C3c1cc2c(cc1O)OC(c1ccc(O)cc1)C2c1cc(O)cc(O)c1 (stereo not given),> 12.5 µM (inactive),,> 12.5 µM (inactive),0.065 µM (active),> 12.5 µM (inactive),> 12.5 µM (inactive),> 12.5 µM (inactive),> 12.5 µM (inactive),> 12.5 µM (inactive),,> 12.5 µM (inactive),> 12.5 µM (inactive),> 12.5 µM (inactive),> 12.5 µM (inactive),> 12.5 µM (inactive),> 12.5 µM (inactive)
CCCCCCCCNC(=O)SCCCC,21.3 µM (inactive),> 100 µM (inactive),45.9 µM (inactive),43.2 µM (inactive),27.5 µM (inactive),19.9 µM (inactive),,,28.4 µM (inactive),24.3 µM (inactive),,38.5 µM (inactive),30.6 µM (inactive),26.1 µM (inactive),45.2 µM (inactive),29 µM (inactive)
COc1ccc2nc(NC(=O)C(=O)C(C#N)c3ccc(Cl)c(Cl)c3)sc2c1 (stereo not given),> 100 µM (inactive),> 100 µM (inactive),> 100 µM (inactive),> 100 µM (inactive),> 100 µM (inactive),> 100 µM (inactive),62.4 µM (inactive),,84.7 µM (inactive),52.2 µM (inactive),> 100 µM (inactive),75.9 µM (inactive),> 100 µM (inactive),45.3 µM (inactive),> 100 µM (inactive),> 100 µM (inactive)
COC(=O)[C@@H]1Cc2c([nH]c3ccccc23)[C@H](c2ccccc2)N1,14.7 µM (inactive),34.4 µM (inactive),35.8 µM (inactive),50.2 µM (inactive),37.6 µM (inactive),38.9 µM (inactive),29.4 µM (inactive),29.2 µM (inactive),34.5 µM (inactive),,41.8 µM (inactive),54.1 µM (inactive),37.2 µM (inactive),19.5 µM (inactive),20 µM (inactive),33 µM (inactive)
O=c1[nH]c2c3ccccc3ccc2c2cc3c(cc12)OCO3,43.5 µM (inactive),> 100 µM (inactive),84.7 µM (inactive),> 100 µM (inactive),> 100 µM (inactive),> 100 µM (inactive),83.2 µM (inactive),,> 100 µM (inactive),28.8 µM (inactive),> 100 µM (inactive),> 100 µM (inactive),> 100 µM (inactive),31.4 µM (inactive),> 100 µM (inactive),> 100 µM (inactive)
Clc1ccc(C2SCc3nc4ccccc4n32)cc1Cl (stereo not given),9.08 µM (inactive),21.4 µM (inactive),15.3 µM (inactive),13.2 µM (inactive),10.6 µM (inactive),13.1 µM (inactive),13.2 µM (inactive),13.9 µM (inactive),13.5 µM (inactive),4.2 µM (inactive),,12.6 µM (inactive),13.8 µM (inactive),3.25 µM (inactive),20.3 µM (inactive),13 µM (inactive)
CC(c1cccc2ccccc12)/[N+]([O-])=C/c1ccccc1 (stereo not given),> 100 µM (inactive),> 100 µM (inactive),> 100 µM (inactive),,> 100 µM (inactive),> 100 µM (inactive),> 100 µM (inactive),,> 100 µM (inactive),> 100 µM (inactive),> 100 µM (inactive),> 100 µM (inactive),> 100 µM (inactive),75 µM (inactive),> 100 µM (inactive),> 100 µM (inactive)
